According to patent publication US5646128A, “Methods for treating adenosine kinase related conditions” (priority 1994, dated 1997):
Entries after “also recorded” stand apart in the source; their conditions may differ. Where two headings read alike, the source gives them in different places.

Assays:
heart = conditions: in vivo; cited from earlier work
[1] = tested on: tumor necrosis factor alpha; conditions: cited from earlier work
[2] = tested on: adenosine uptake, guinea pig brain slices; conditions: cited from earlier work
[3] = cited from earlier work
[4] = tested on: dog hearts subjected to ischemia and reperfusion; conditions: in vivo; cited from earlier work
[5] = tested on: perfusate adenosine, isolated rat hearts; conditions: normoxic, hypoxic, anoxic or ischemic conditions; alone; cited from earlier work
[6] = tested on: adenosine uptake, rat brain slices; conditions: cited from earlier work
[7] = mouse, in vivo; cited from earlier work
E. coli LPS endotoxemia [8] = test: Survival in endotoxemia (E. coli LPS) in mice; assay type: in vivo, Balb/C mice; conditions: i.v. immediately after 900 ug LPS i.v.; p=0.015
Text: An adenosine kinase inhibitor (GP-1-515) was used to increase endogenous adenosine production in vivo.

TNF-α = test: Inhibition of TNF-alpha production in endotoxemic mice (ELISA); assay type: in vivo, Balb/C mice; conditions: 0.1 mg/kg i.v., one hour after LPS; p<0.01
Procedure: In these experiments, plasma TNF-α levels were measured in GP-1-515and placebo-treated mice (8 animals per group). Balb/C mice received an intravenous injection of E. coli LPS (900 ug/animal) (Sigma Chemical Co.) followed immediately by a second injection with 0.1 mg/kg of GP-1-515 or vehicle. Some animals were pretreated with an intraperitoneal injection of the adenosine receptor antagonist 8SPT. One hour later, blood was obtained from ether anesthetized animals by intracardiac puncture using a heparinized syringe. Blood samples were chilled on ice, centrifuged at 5000 rpm in a microcentrifuge for 5 minutes, and the plasma removed. TNF-α levels in the plasma were assayed by ELISA according to the instructions provided by the manufacturer (Endogen, Cambridge, Mass.).

bacterial translocation = test: Burn model, bacterial translocation to mesenteric lymph nodes; assay type: in vivo, Female CF-1 mice
Procedure: Female CF-1, non-Swiss, non-albino mice (age 8-12 weeks) (Charles River Laboratory, Wilmington, Mass.) were anesthetized with a 1-2 minute exposure to methoxyflurane (Abbott Labs, Chicago, Ill.). The shaved dorsum was burned by a 6-second exposure to steam using a 3.5×5.5 cm template to produce a 32% total body surface area full thickness burn. Animals were resuscitated with 1 mL of normal saline i.p., followed by 0.1 mg/kg i.p./injection of GP-1-515 or an equal amount of vehicle. Animals also received an i.p. injection of morphine sulfate (15 mg/kg). The animals were administered a second injection of GP-1-515 (0.1 mg/kg) or vehicle i.p. 6 hours after the burn. Animals were fasted for 4 hours before the burn and for 24 hours thereafter. After 48 hours, the animals were sacrificed by cervical dislocation and the abdomen was opened using aseptic techniques. Mesenteric lymph nodes were harvested and weighed in sterile bags, homogenized in Trypticate Soy Broth (BBL, Becton Dickinson Microbiology System, Cockeysville, Md.). Ser. dilutions of the homogenate were plated on […] plates (BBL, Becton Dickinson) at 37° C. and the presence or absence of bacterial colonies was determined 48 hours later. In experiments involving approximately 120 animals, 52% of control mice had positive mesenteric lymph node cultures compared to 32% of GP-1-515-treated mice (p<0.05).

[9] = tested on: E. Coli 0111:B4 lipopolysaccharide (LPS) endotoxic shock; test: Endotoxic shock in pigs; assay type: in vivo, Yucatan miniature pigs
Procedure: Male or female Yucatan miniature pigs (20-27 kg) were pre-medicated with xylazine ([…] i.m.), ketamine (150 mg i.m.), and atropine (1 mg i.m.). The animals were intubated, administered 10 mg/kg of pentobarbital intravenously, and covered with a blanket to maintain normal body temperature. A pentobarbital infusion was maintained at 10 mg/kg/hr. The pigs were ventilated with 30% O2 using a Harvard large animal respirator at 7-10 breaths/rain in order to achieve a blood pH of approximately 7.45-7.50. A bolus of 4 mg of Pancuronium bromide was given to inhibit muscle contraction in response to the cautery and the animals were hydrated with a continuous infusion of saline at 60-80 cc/hr. A left thoracotomy was performed in the third intercostal space and the pulmonary artery, carotid artery, external jugular vein were cannulated with PE-190 tubing. A line was also placed in the left atrium and a catheter tipped micromanometer was inserted into the left ventricle via an apical stab wound. A transit-time flow probe was placed on the pulmonary artery. Pressure readings were obtained using a Statham pressure transducer connected to a Gould strip chart recorder. Heparinized arterial blood samples for blood gases were obtained through the carotid arterial catheter. Drugs and endotoxin were infused through the external jugular catheter.
After the animals had stabilized, a continuous infusion of GP-1-515 (0.3 μg/kg/m in) was started, followed 30 min later by a slow infusion of E. Coli 0111:B4 lipopolysaccharide (LPS) (Sigma Chemical Co., St. Louis, Mo.) over 30 min. The animals continued to receive GP-1-515 or vehicle for 4 additional hours and were ventilated with a fixed tidal volume and FiO2. […] Control animals developed severe hypoxemia, hypercapnia, and acidosis. […] 4/7pigs in the control group died (several of whom had frank pulmonary edema) compared to 1/7in the GP-1-515-treated group. Upon completion of the study, the surviving animals were euthanized with an intravenous bolus of pentobarbital.

adenosine kinase = target: T1, adenosine kinase (Bos taurus, UniProt A0AAA9RZ79); test: Adenosine kinase inhibition in intact cells (capillary endothelial cells from bovine heart); assay type: cell-based; conditions: 20 μM 2'-deoxycoformycin, 5 μM [3H]adenosine
T1 construct: endogenous in cells; host or cells: capillary endothelial cells from bovine heart
T1 sequence (A0AAA9RZ79 1-362): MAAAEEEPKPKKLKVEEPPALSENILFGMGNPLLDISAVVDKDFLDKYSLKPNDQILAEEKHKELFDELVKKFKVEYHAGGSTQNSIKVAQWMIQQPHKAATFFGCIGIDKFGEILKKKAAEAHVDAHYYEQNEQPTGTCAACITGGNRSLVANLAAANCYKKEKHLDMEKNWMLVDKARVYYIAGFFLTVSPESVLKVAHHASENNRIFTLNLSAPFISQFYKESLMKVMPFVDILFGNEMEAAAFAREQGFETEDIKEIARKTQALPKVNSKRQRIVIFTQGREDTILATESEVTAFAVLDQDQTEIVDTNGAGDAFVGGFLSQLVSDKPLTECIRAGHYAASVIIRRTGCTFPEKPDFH
Procedure: Inhibition of adenosine kinase in intact cells was determined from the amount of incorporation of radioisotope from adenosine into the adenylates (AMP, ADP and ATP) in the presence of adenosine deaminase inhibition. […] The media was then discarded and the cells were treated with 50 μl 0.4M perchloric acid, centrifuged and the supernalants neutralized with 100 μl alanine: freon (1:4).

E. coli LPS endotoxemia [10] = test: Prophylactic treatment for endotoxemia in mice; assay type: in vivo, Balb/C mice; conditions: 5 mg/kg oral, 6 hours before 700 ug LPS i.v.
Procedure: As shown in Example E, intravenous treatment with an adenosine kinase inhibitor improves survival of mice if administered immediately after intravenous injection with LPS. In the following experiments, it was shown that an adenosine kinase inhibitor (GP-1-515) protects animals against endotoxemia if administered prophylactically. In these experiments, 25-30 gram male Balb/C mice received oral GP-1-515 (5 mg/kg in water) or vehicle by gavage. Six hours later, the animals received an intravenous injection of 700 ug of E. coli LPS (Sigma Chemical Co.). In an experiment involving 10 animals per group, 50% of mice in the adenosine kinase inhibitor-treated group survived for 2 days, while none of animals in the vehicle treated group survived for that time period (data not shown).

[11] = tested on: bacterial peritonitis and septic shock; test: Cecal ligation and puncture, model of chronic sepsis; assay type: in vivo, male CD rats; conditions: 5 mg/kg orally, 2 hours before
Procedure: Cecal ligation and puncture (CLP) is a model of bacterial peritonitis and septic shock which mimics systemic infections in humans. In these experiments, male CD rats were fasted overnight and treated orally with either GP-1-515 (5 mg/kg) or vehicle by gavage. Two hours later, animals were anesthetized with ether and the anterior abdominal wall was shaved. A midline incision was made and the cecum was exteriorized and ligated with 3-0 silk suture near the ilial-cecal junction without causing bowel obstruction. The cecum was punctured twice on the anti-mesenteric side using a yellow tip disposable pipette tip (Fisher, Tustin, Calif.) and squeezed to ensure patency. The cecum was placed back in the abdominal cavity and the peritoneal wall was closed with 5-0 nylon sutures. The skin was closed with 9 mm stainless steel wound clips. The animals were resuscitated with a subcutaneous injection of 2 mL of sterile saline. No antibiotics were administered.

[12] = Oral bioavailability (statement); assay type: in vivo; conditions: pro-drug of GP-1-515
[13] = tested on: plasma leakage in rat skin; test: Suppression of vascular (plasma) leakage in rat skin, Evans' Blue; assay type: in vivo, Male SA rats; conditions: for inhibition at 5 mg/kg: Rattus norvegicus, po, 5 mg/kg p.o. 1 hr prior
Procedure: Leakage of plasma into inflamed skin was measured using Evans' Blue (Sigma Chemical Co., St. Louis, Mo.), which binds irreversibly to albumin. Evans' Blue and bovine serum albumin (Sigma) were mixed (20 and 40 mg/mL PBS, respectively) and incubated for 15 min at room temperature in order to form a conjugate. The mixture was then filtered through a 0.45 μm pore syringe filter and immediately used. […] The rats were then briefly anesthetized with halothane and dorsal skin injection sites (up to 4/rat) were stamped with a 12 mm test tube inked with a felt pad. Every site received 100 μl of an inflammatory agent or PBS injected intradermally into the middle of the circular mark. Inflammatory agents included carrageenan (1%) and histamine (10^-3 M) (Sigma). Rats were then returned to their cages. Two hrs later, animals were again anesthetized and 0.5 mL blood was obtained through orbital plexus bleed. Following sacrifice of the rats, the injection sites were excised along the marked lines, and subcutaneous muscle and fat layers were removed from the skin biopsies. Each skin biopsy was weighed and cut in four, and its Evans' Blue content was extracted overnight by incubation in 1 mL N,N-dimethylformamide (Aldrich, Milwaukee, Wis.). The absorbance at 650 nm of plasma samples and skin extracts was read in a plate reader, and the plasma content of each skin piece was calculated and expressed as μl plasma/g tissue.

## Nc1ncnc2c1ncn2[C@@H]1O[C@H](CO)[C@@H](O)[C@H]1O [Adenosine, adenosine]
heart
  coronary steal: cause coronary steal
  inotropic, chronotropic and dromotropic effects: negative inotropic, chronotropic and dromotropic effects
[1]
  in vitro production of tumor necrosis factor alpha: inhibit in vitro production

## Nc1ncnc2c1c(I)cn2[C@@H]1O[C@H](CO)[C@@H](O)[C@H]1O [GP-1-202, 5-iodotubercidin, reference compound]
[2]
  adenosine uptake, guinea pig brain slices: inhibited
[3]
  blood pressure and heart rate in anesthetized rats: decrease blood pressure and heart rate
[4]
  effects in dog hearts, ischemia and reperfusion: inconsistent effects
[5]
  perfusate adenosine concentration, isolated rat hearts: no increase in perfusate adenosine concentration
[6]
  adenosine uptake, rat brain slices: inhibited
[7]
  body temperature in mice: hypothermia
  flaccidity and locomotor activity in mice: pronounced general flaccidity and much-reduced spontaneous locomotor activity

## NC[C@H]1O[C@@H](n2nc(Br)c3c(N)ncnc32)[C@H](O)[C@@H]1O [GP-1-515]
E. coli LPS endotoxemia [8]
  survival in endotoxic shock: dose-dependent increase in survival; also recorded: protecting against endotoxic shock
TNF-α
  plasma TNF-α levels: significantly decreased plasma TNF-α levels
Bacterial translocation; 0.1 mg/kg i.p. twice, 48 hours, control 52%, p<0.05
  mice with positive mesenteric lymph node cultures: 32%
Bacterial translocation; after a severe burn (or pancreatitis)
  bacterial translocation: significantly decreased; also recorded: significantly reduce bacterial translocation
[9]; 0.3 μg/kg/min infusion
  gas exchange, pulmonary function, blood gases: marked protection; also recorded: minimal changes in blood gases; also recorded: did not develop the hypoxemia, hypercapnia and acidosis exhibited in the control animals
[9]; control 4/7
  pigs died: 1/7
[9]; versus control
  blood pressure: Blood pressures were similar in the treated and control groups
  heart rate: the control group,, required a significantly higher heart rate; also recorded: lower heart rates than control animals
[9]; versus untreated
  other hemodynamic parameters, including pulmonary flow and pulmonary vascular resistance: either not different or modestly improved
Adenosine kinase
  IC50: 9 nM
E. coli LPS endotoxemia [10]
  mice surviving for 2 days: 50%
[11]
  survival after cecal ligation and puncture: improved survival

## CC(=O)O[C@@H]1[C@H](OC(C)=O)[C@@H](CN)O[C@H]1n1nc(Br)c2c(N)ncnc21 [GP-1-792, 4-amino-1-(5-amino-5-deoxy-2,3-di-O-acetyl-1-β-D-ribofuranosyl)-3-bromopyrazolo[3,4-d]pyrimidine]
[12]
  oral bioavailability: orally bioavailable
[13]; FIG. 13 legend
  suppression of carrageenan and histamine induced plasma leakage: suppression of carrageenan and histamine induced plasma leakage
[13]; carrageenan (1%), read-out: inhibition of carrageenan-induced plasma leakage
  inhibition at 5 mg/kg: 47 ± 5%
[13]; histamine (10^-3 M), read-out: inhibition of histamine-induced plasma leakage
  inhibition at 5 mg/kg: 51 ± 5%
